What was measured:
adipocytes = test: Expression of phospho HSL / HSL in adipocytes incubated 3 h with ZAG or isoprenaline; format: cell-based, mice
epididymal adipocytes = test: Lipolytic assay (glycerol release) in isolated mouse adipocytes; format: cell-based, mice; details: any adipocyte group
Experimental: Cell Culture and Purification of ZAG—Single-cell suspensions of white adipocytes were prepared from minced adipose deposits by incubation at 37° C. for […] in Krebs-Ringer biocarbonate buffer containing 1.5 ingml^−1 collagenase, and 4% bovine serum albumin under an atmosphere of 95% oxygen:5% CO2 as previously described. For time-course studies adipocytes were suspended in DMEM containing 10% fetal calf serum at a concentration of 10^5 cells ml^−1 and maintained under an atmosphere of 10% CO2 in air at 37° C. Human 293 cells transfected with a plasmid containing human ZAG were seeded at a concentration of 10^5 cells ml^−1 in FreeStyle medium and maintained under an atmosphere of 5% CO2 in air at 37° C. Maximal protein levels (16 μgml^−1) were obtained after 14 days of culture. […]
Lipolytic Assay—Samples to be assayed were incubated with 10^5 to 2×10^5 adipocytes for 2 h in 1 ml Krebs-Ringer bicarbonate buffer, pH 7.2. The concentration of glycerol released was determined enzymatically by the method of Wieland (Wieland, O. Glycerol UV method. In Methods of Enzymatic Analysis (ed. Bergmeyer, H. U.) (Academic Press, London, UK, pp 1404-1409, 1974)). Control samples containing adipocytes alone were analysed to determine the spontaneous glycerol release. Activity was expressed as nmol glycerol released/10^5 adipocytes/2 h.

murine myotubes = test: Protein degradation and synthesis in myotubes subjected to high glucose; format: cell-based
Experimental: FIGS. 18A and 18B is a graphical diagram showing phenylalanine release (FIG. 18A) and protein synthesis (FIG. 18B) in C2Cl2 myotubes treated with and without ZAG for 4 h in the presence of various concentrations of glucose. Statistically significant c, P<0.001 from control; f, P<0.001 from glucose alone.
Statistically significant b, P<0.01 and c, P<0.001 from control; e, P<0.05 and f, P<0.001 from glucose alone.
Statistically significant b, P<0.01 and c, P<0.001 from control; e, P<0.05 and f, P<:0.001 from glucose alone; I, P<0.001 from glucose+SR.
This utilizes murine myotubes subjected. to high concentrations of glucose (10 or 25 mM).

Compound: COc1cccc(-c2cc(=O)c3ccccc3o2)c1N [PD98059]
- effect on ZAG-induced expression of HSL in ep adipocytes (adipocytes; PD98059 10 μM, adipocytes incubated with ZAG for 3 h): attenuated the increase in expression of HSL

Compound: CC(C)NCC(O)c1ccc(O)c(O)c1 (stereo not drawn) [isoprenaline]
- extent of stimulation of lipolysis, isoprenaline versus ZAG (epididymal adipocytes): no significant difference
- expression of phospho HSL in adipocytes (adipocytes; 3 h, isoprenaline 10 μM or ZAG 0.46 μM): not

Compound: CCc1ccccc1OC[C@@H](O)CN[C@H]1CCCc2ccccc21 [SR59230A]
- combination of ZAG and SR59230A on glucose induced protein degradation (murine myotubes; 10 and 25 mM glucose): additive rather than antagonistic
- protein degradation induced by 10 and 25 mM glucose (murine myotubes; myotubes): attenuated
- protein synthesis (murine myotubes; with 10 mM glucose): causes an increase in the depression of protein synthesis
